pIC50: −log10 of the molar value. Converted amounts (≈) assume the structure as drawn.
Assays:
[1] = Inhibition of IGFR
[2] = Ratio of IC50 for IR to IC50 for IGFR
[3] = Aqueous solubility at pH 7.4; type: physicochemical

pIC50 [1] | Ratio IC50 [2] | solubility [3] [mg/mL] | Compound
6.02 |  |  | NC(=O)c1ccc(Nc2ccc3c(c2)/C(=C/Nc2ccc(CN4CCCCC4)cc2)C(=O)NC3=O)cc1
6.04 | 0.62 |  | CN(C)Cc1ccc(N/C=C2\C(=O)NC(=O)c3ccc(Nc4ccccc4)cc32)cc1
5.38 |  |  | N#Cc1ccccc1Nc1ccc2c(c1)/C(=C/Nc1ccc(CN3CCCCC3)cc1)C(=O)NC2=O
< 5.00 |  |  | O=C1NC(=O)c2ccc(Nc3ccc4[nH]ccc4c3)cc2/C1=C/Nc1ccc(CN2CCCCC2)cc1
< 5.00 |  |  | O=C1NC(=O)c2ccc(Nc3cccc(Cl)c3)cc2/C1=C/Nc1ccccc1
< 5.00 |  |  | O=C1NC(=O)c2ccc(Nc3ccc(Cl)cc3)cc2/C1=C/Nc1ccc(CN2CCCCC2)cc1
5.62 |  |  | O=C1NC(=O)c2ccc(Nc3cccc(Cl)c3)cc2/C1=C/Nc1ccc(CN2CCCCC2)cc1
6.36 | 0.72 |  | CC(=O)c1cccc(Nc2ccc3c(c2)/C(=C/Nc2ccc(CN4CCCCC4)cc2)C(=O)NC3=O)c1
< 5.00 |  |  | Cc1cccc(Nc2ccc3c(c2)/C(=C/Nc2ccc(CN4CCCCC4)cc2)C(=O)NC3=O)c1
5.95 |  |  | N#Cc1cccc(Nc2ccc3c(c2)/C(=C/Nc2ccc(CN4CCCCC4)cc2)C(=O)NC3=O)c1
5.54 |  |  | O=C1NC(=O)c2ccc(Br)cc2/C1=C/Nc1ccc(CN2CCCCC2)cc1
6.01 |  |  | COc1ccc(Nc2ccc3c(c2)/C(=C/Nc2ccc(CN4CCCCC4)cc2)C(=O)NC3=O)cc1
5.86 | 0.48 |  | COc1cccc(Nc2ccc3c(c2)/C(=C/Nc2ccc(CN(C)C)cc2)C(=O)NC3=O)c1
5.38 |  |  | Cc1ccccc1Nc1ccc2c(c1)/C(=C/Nc1ccc(CN3CCCCC3)cc1)C(=O)NC2=O
5.94 | 0.64 |  | CCN(CC)Cc1ccc(N/C=C2\C(=O)NC(=O)c3ccc(Nc4ccc(C)cc4)cc32)cc1
6.20 | 1 |  | CC1CN(c2ccc(N/C=C3\C(=O)NC(=O)c4ccc(-c5ccoc5)cc43)cc2)CC(C)N1 (stereo unspecified)
< 5.00 |  |  | CN(C)c1ccc(Nc2ccc3c(c2)/C(=C/Nc2ccc(CN4CCCCC4)cc2)C(=O)NC3=O)cc1
< 5.00 |  |  | COc1cc(Nc2ccc3c(c2)/C(=C/Nc2ccc(CN4CCCCC4)cc2)C(=O)NC3=O)cc(C(F)(F)F)c1
6.15 | 0.75 |  | O=C1NC(=O)c2ccc(-c3ccoc3)cc2/C1=C/Nc1ccc(CN2CCCCC2)cc1
6.50 | 1.6 | 1 (≈ 2020 µM) | CC(=O)c1cccc(Nc2ccc3c(c2)/C(=C/Nc2ccc(N4CCN(C)CC4)cc2)C(=O)NC3=O)c1
< 5.00 |  |  | COc1cccc(Nc2ccc3c(c2)/C(=C/Nc2ccccc2)C(=O)NC3=O)c1

pIC50 [1] | Ratio IC50 [2] | solubility [3] [mg/mL] | Compound
< 5.00 |  |  | CCOC(=O)c1ccc(Nc2ccc3c(c2)/C(=C/Nc2ccc(CN4CCCCC4)cc2)C(=O)NC3=O)cc1
5.58 |  |  | O=C1NC(=O)c2ccc(Nc3cccc(F)c3)cc2/C1=C/Nc1ccc(CN2CCCCC2)cc1
5.28 |  |  | O=C1NC(=O)c2ccc(Nc3cccc4ncccc34)cc2/C1=C/Nc1ccc(CN2CCCCC2)cc1
5.62 |  |  | O=C1NC(=O)c2ccc(Br)cc2/C1=C/Nc1ccc(CN2CCCC2)cc1
< 5.00 |  |  | O=C1NC(=O)c2ccc(Nc3cccc(C(F)(F)F)c3)cc2/C1=C/Nc1ccc(CN2CCCCC2)cc1
< 5.00 |  |  | Nc1cccc(Nc2ccc3c(c2)/C(=C/Nc2ccc(CN4CCCCC4)cc2)C(=O)NC3=O)c1
6.30 | 1.14 |  | Cc1ccc(Nc2ccc3c(c2)/C(=C/Nc2ccc(CN4CCCCC4)cc2)C(=O)NC3=O)cc1
5.10 |  |  | O=C1NC(=O)c2ccc(Nc3ccc4c(c3)CCC4)cc2/C1=C/Nc1ccc(CN2CCCCC2)cc1
6.08 | 0.83 |  | CN1CCN(c2ccc(N/C=C3\C(=O)NC(=O)c4ccc(NS(=O)(=O)c5ccccc5)cc43)cc2)CC1
5.97 |  |  | COc1cccc(Nc2ccc3c(c2)/C(=C/Nc2ccc(CN4CCCCC4)cc2)C(=O)NC3=O)c1
6.21 |  |  | COc1ccccc1Nc1ccc2c(c1)/C(=C/Nc1ccc(CN3CCCCC3)cc1)C(=O)NC2=O
5.78 |  |  | O=C1NC(=O)c2ccc(Nc3ccccc3Cl)cc2/C1=C/Nc1ccc(CN2CCCCC2)cc1
6.25 | 0.69 |  | COc1ccc(Nc2ccc3c(c2)/C(=C/Nc2ccc(CN(C)C)cc2)C(=O)NC3=O)cc1
6.27 | 0.85 |  | CC(=O)c1cccc(Nc2ccc3c(c2)/C(=C/Nc2ccc(N4CC(C)NC(C)C4)cc2)C(=O)NC3=O)c1 (stereo unspecified)
5.88 |  |  | N#Cc1ccc(Nc2ccc3c(c2)/C(=C/Nc2ccc(CN4CCCCC4)cc2)C(=O)NC3=O)cc1
5.23 |  |  | CC(=O)c1ccc(Nc2ccc3c(c2)/C(=C/Nc2ccc(CN4CCCCC4)cc2)C(=O)NC3=O)cc1
6.05 |  |  | O=C1NC(=O)c2ccc(Nc3ccc4c(c3)OCO4)cc2/C1=C/Nc1ccc(CN2CCCCC2)cc1
5.14 | 0.58 |  | CN(C)Cc1ccc(N/C=C2\C(=O)NC(=O)c3ccc(Br)cc32)cc1
6.05 | 0.87 |  | CC(=O)c1cccc(Nc2ccc3c(c2)/C(=C/Nc2ccc(CN(C)C)cc2)C(=O)NC3=O)c1
6.34 | 0.87 |  | O=C1NC(=O)c2ccc(Nc3ccccc3)cc2/C1=C/Nc1ccc(CN2CCCCC2)cc1

From ChEMBL document CHEMBL1145573, “Lead identification to generate isoquinolinedione inhibitors of insulin-like growth factor receptor (IGF-1R) for potential use in cancer treatment” (Bioorg Med Chem Lett, 2008)
